Measurements taken from US20240336625A1, “SULFONIMIDAMDE COMPOUNDS AND USES THEREOF” (Genentech, Inc., priority 2021, published 2024).
Read-outs that look alike come from different tables or passages of the source.

How the values were obtained:
[1] = system: NLRP3 inflammasome pathway; assay: Human Whole Blood Assay (IL-1β release, LPS + ATP); format: cell-based; conditions: read-out: HWB IC90
Protocol: The ability of selected compounds to inhibit IL-1beta production in human blood was assessed in a human whole blood assay with lipopolysaccharide.
Fresh human whole blood (HWB) was obtained from healthy donors. […] At the end of stimulation, the plates were centrifuged 2 min×3000 rpm, and supernatant transferred into fresh plates and stored at −80° C. until IL-1β analysis. IL-1b levels were measured using electrochemiluminescence immunoassay with an anti-IL-1b antibody as a primary detection agent.

hPXR nuclear receptor = target: T1, hPXR nuclear receptor (Homo sapiens, UniProt O75469); assay: PXR Activation Assay; format: cell-based; conditions: relative to positive control (rifampicin)
T1 construct: expressed in transfected cells
T1 sequence (O75469 1-434): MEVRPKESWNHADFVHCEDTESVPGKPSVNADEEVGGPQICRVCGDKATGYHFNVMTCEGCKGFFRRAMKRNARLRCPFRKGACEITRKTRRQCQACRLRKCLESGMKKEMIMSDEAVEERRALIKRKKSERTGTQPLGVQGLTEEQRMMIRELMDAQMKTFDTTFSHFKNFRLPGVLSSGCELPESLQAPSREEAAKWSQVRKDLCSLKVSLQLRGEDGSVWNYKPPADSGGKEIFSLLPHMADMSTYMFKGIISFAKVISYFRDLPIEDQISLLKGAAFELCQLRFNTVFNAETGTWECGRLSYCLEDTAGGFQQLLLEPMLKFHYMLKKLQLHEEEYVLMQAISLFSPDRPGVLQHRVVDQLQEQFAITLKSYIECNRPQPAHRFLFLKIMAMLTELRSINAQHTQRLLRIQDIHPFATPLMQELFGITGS
Protocol: Hepatoma cells either expressing an endogenous human […] or transfected with the hPXR nuclear receptor and the corresponding response elements were seeded in a 96-well plate. Twenty-four hours after seeding, the cells were treated with six distinct concentrations of test compounds in duplicate wells, and cells then returned to the incubator for an additional 24 h. At the end of this incubation period, the number of viable cells/well was determined using Promega's Cell Titer Fluor cytotoxicity assay. Following this assay, Promega's ONE-Glo was added to the same wells and reporter gene activity assessed.
Data processed using MS-Excel was provided as the mean (n=2) of the fold receptor activation relative to vehicle-treated cells at each of the six different doses. All activation data was normalized to the number of viable cells/well. Results were also expressed as a percentage of the response given by the appropriate positive control (rifampicin) at a 10 μM dose. EC50 and Emax values were derived for positive controls using nonlinear regression of log dose-response curves.

[2] = Rat Pharmacokinetic (PK) Studies; format: in vivo, Sprague-Dawley rats; conditions: male, Sprague-Dawley, plasma; for bioavailability: 1 mg/kg PO vs 0.5 mg/kg IV cassette dose
Protocol: Studies were performed at WuXi AppTech Co., Ltd (Shanghai, P.R. China). Food and water were available ad libitum except for animals that were dosed oral doses in pharmacokinetic (PK) studies, which were fasted overnight before dosing of test compounds. Six male Sprague-Dawley rats, aged 6-9 weeks with body weight of 200-300 g were obtained from Vital River Laboratory Animal Technology Co., Ltd., Beijing, P.R. China and were randomly allocated to two dose groups (3 rats were used for the IV group and 3 rats for the PO group). Animals in Group 1 were given a single IV bolus cassette dose of 0.5 mg/kg of test compounds at a dose volume of 1 mL/kg, formulated in DMSO/PEG400/Water (10/60/30). Animals in Group 2 were given a 1 mg/kg PO cassette dose of test compounds at a dose volume of 1 mL/kg, formulated in 0.5% Methyl cellulose/0.2% Tween 80 (MCT) as a suspension. Blood samples were collected via catheter at the femoral artery into tubes containing K2EDTA as an anticoagulant. Both groups were sampled at 0.033, 0.083, 0.25, 0.5, 1, 2, 4, 8 and 24 hours post-dose for blood. All samples were stored at −80° C. until analysis. The concentration of test compounds in each blood or plasma sample was determined by LC-MS/MS analysis.
PK parameters were calculated by noncompartmental methods as described in Gibaldi and Perrier (1982) using Phoenix™ WinNonlin (Certara, Princeton, NJ) version 8.3.4.295. Parameters are presented as mean±SD. Bioavailability (F) was determined by dividing the dose-normalized area under the plasma concentration-time curve from time 0 extrapolated to infinity (AUCinf) for each animals dosed orally by the dose-normalized mean AUCinf determined from the animals dosed intravenously.

[3] = system: NLRP3 dependent inflammasome pathway; assay: THP-1 ASC-GFP Speck Assay; format: cell-based; conditions: THP1-ASC-GFP; THP-1 ASC-GFP cells, LPS primed, 10 μM nigericin
Protocol: Cell Culture: THP-1 ASC-GFP cell line is purchased from Invivogen, San Diego, for inflammasome activation assay. THP-1 ASC-GFP cells stably express a 37.6 kDa ASC::GFP fusion protein that enables monitoring of spec formation by microscopy after activation of NLRP3 dependent inflammasome pathway. Cells are maintained at a density of 600,000 cells/mL in growth media consisting of RPMI 1640, 2 mM L-glutamine, 25 mM HEPES and 10% heat inactivated fetal bovine serum at 37° C. and 5% CO2. Cells are passaged every 3-4 days and used for assays for up to 20 passages.
NLRP3 inflammasome activation assay: THP-1 ASC-GFP cells are collected by centrifuging cells at 800 RPM for 5 minutes. Cell culture supernatant is removed and cells are resuspended in fresh media at density of 1×10^6 cells/mL in assay media consisting of RPMI 1640, 2 mM L-glutamine, 25 mM HEPES and 10% heat inactivated fetal bovine serum.
Phorbol 12-myristate 13-acetate (PMA) (Invivogen, tlrl-pma) is added to the cell suspension at a final concentration of 500 ng/ml and mixed thoroughly. 40,000 cells are added per well of a 384 well plate and differentiated into macrophages overnight at 37° C. and 5% CO2. […]
Imaging ASC-GFP specks: THP-1 ASC-GFP cells are imaged in 488 and Hoechst channels. […] Percentage of cells with a spec is calculated by dividing the number of GFP positive spots by total number of cells.

[4] = Homo sapiens, LPS 200 ng/mL, ATP 1.75 mM, IL-1β
[5] = read-out: Rat Half Life (converted)

| SMILES | IC90 [1, 4] [nM] | % PXR activation @ 10 μM (hPXR nuclear receptor) [%] | bioavailability [2] [%] | half-life [2, 5] [h] | IC50 [3] [nM] | IC90 ([1]; Homo sapiens) [nM] | half-life ([2]; read-out: half life) [h] | IC90 ([1]; LPS 200 ng/mL, ATP 1.75 mM, IL-1β) [nM] |
| --- | --- | --- | --- | --- | --- | --- | --- | --- |
| C[C@]1(CO)Cn2ncc([S@](N)(=O)=NC(=O)Nc3c4c(cc5c3CC5)CC4)c2O1 [Compound A, (R,2R)-2-(hydroxymethyl)-2-methyl-N-(tricyclo[6.2.0.0^3,6]deca-1,3(6),7-trien-2-ylcarbamoyl)-2,3-dihydropyrazolo[5,1-b]oxazole-7-sulfonimidamide] | – | – | – | – | 0.98 | – | – | – |
| CC1(CO)Cn2ncc(S(N)(=O)=NC(=O)Nc3c4c(cc5c3CCC5)CCC4)c2O1 (stereo not shown) [XN] | – | 6.2 | 36 | 1.2 | – | – | – | – |
| C[C@]1(CO)Cn2ncc([S@](N)(=O)=NC(=O)Nc3c4c(c(F)c5c3CC5)CC4)c2O1 [Compound 6, (R,2R)-N′-((7-fluorotricyclo[6.2.0.0^3,6]deca-1,3(6),7-trien-2-yl)carbamoyl)-2-(hydroxymethyl)-2-methyl-2,3-dihydropyrazolo[5,1-b]oxazole-7-sulfonimidamide] | 55 | – | 48 | 1.8 | – | < 100 | > 1.5 | – |
| COC1CN(C2COc3c(S(N)(=O)=NC(=O)Nc4c5c(cc6c4CC6)CC5)cnn3C2)C1 (stereo not shown) [XP] | 130 | – | 33 | 1.9 | – | – | – | – |
| C[C@]1(CO)Cn2ncc([S@](N)(=O)=NC(=O)Nc3c4c(c(F)c5c3CC5)CC4)c2O1 (single isomer, unassigned) [Compound G] | – | – | – | – | 1.1 | – | – | – |
| CC1(C)Cn2ncc(S(N)(=O)=NC(=O)Nc3c4c(cc5c3CC5)CCC4)c2O1 (stereo not shown) [XI] | 240 | 90 | 39 | – | – | – | – | – |
| CNC1COc2c(S(N)(=O)=NC(=O)Nc3c4c(c(F)c5c3CC5)CC4)cnn2C1 (stereo not shown) [XO] | 110 | 3.3 | 32 | 1.3 | – | – | < 1 | – |
| NS(=O)(=NC(=O)Nc1c2c(cc3c1CCC3)CCC2)c1cnn2c1OC(CO)C2 (stereo not shown) [XL] | 390 | 3.7 | – | – | – | – | – | – |
| CC1(C)Cn2ncc(S(N)(=O)=NC(=O)Nc3c4c(cc5c3CC5)CC4)c2O1 (stereo not shown) [XH] | 130 | 81 | 85 | 1.9 | – | – | – | – |
| C[C@]1(CO)Cn2ncc([S@](N)(=O)=NC(=O)Nc3c4c(cc5c3CC5)CC4)c2O1 [Compound 2, (R,2R)-2-(hydroxymethyl)-2-methyl-N′-(tricyclo[6.2.0.0^3,6]deca-1,3(6), 7-trien-2-ylcarbamoyl)-2,3-dihydropyrazolo[5,1-b]oxazole-7-sulfonimidamide] | 43 | – | 53 | > 2 | – | < 100 | – | – |
| CC1(C)COc2c(S(N)(=O)=NC(=O)Nc3c4c(cc5c3CC5)CC4)cnn2C1 (stereo not shown) [XE] | 520 | 63 | 126 | – | – | – | – | – |

Further lines, results first:

| IC90 [1, 4] [nM] | % PXR activation @ 10 μM (hPXR nuclear receptor) [%] | bioavailability [2] [%] | half-life [2, 5] [h] | IC50 [3] [nM] | IC90 ([1]; Homo sapiens) [nM] | half-life ([2]; read-out: half life) [h] | IC90 ([1]; LPS 200 ng/mL, ATP 1.75 mM, IL-1β) [nM] | SMILES |
| --- | --- | --- | --- | --- | --- | --- | --- | --- |
| 2400 | 2.4 | – | – | – | – | – | – | NS(=O)(=NC(=O)Nc1c2c(cc3c1CCC3)CCC2)c1cnn2c1OCC(O)C2 (stereo not shown) [XM] |
| 480 | 61 | 45 | 2 | – | – | – | – | CC1(C)COc2c(S(N)(=O)=NC(=O)Nc3c4c(cc5c3CCC5)CCC4)cnn2C1 (stereo not shown) [XA] |
| 1700 | 22 | – | – | – | – | – | – | NS(=O)(=NC(=O)Nc1c2c(cc3c1CCC3)CCC2)c1cnn2c1OCCC2 (stereo not shown) [XD] |
| 3400 | 26 | – | – | – | – | – | – | NS(=O)(=NC(=O)Nc1c2c(cc3c1CC3)CCC2)c1cnn2c1OCCC2 (stereo not shown) [XC] |
| 3300 | 15 | 54 | – | – | – | – | – | NS(=O)(=NC(=O)Nc1c2c(cc3c1CC3)CC2)c1cnn2c1OCC2 (stereo not shown) [XF] |
| 290 | 74 | 91 | 0.87 | – | – | – | – | CC1(C)Cn2ncc(S(N)(=O)=NC(=O)Nc3c4c(cc5c3CCC5)CCC4)c2O1 (stereo not shown) [XB] |
| 770 | 25 | 28 | – | – | – | – | – | C[C@@H]1COc2c(S(N)(=O)=NC(=O)Nc3c4c(cc5c3CCC5)CCC4)cnn2C1 (single isomer, unassigned) [XG] |
| – | 4 | – | – | – | – | – | 560 | CC1(CO)COc2c(S(N)(=O)=NC(=O)Nc3c4c(cc5c3CCC5)CCC4)cnn2C1 (single isomer, unassigned) [XK] |
| 700 | 2.4 | – | – | – | – | – | – | CC1(CO)COc2c(S(N)(=O)=NC(=O)Nc3c4c(cc5c3CCC5)CCC4)cnn2C1 (single isomer, unassigned) [XJ] |
